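Five concentrations, 48 hours, 96-well plates. At the GI50, growth is halved. TGI denotes the concentration required for complete inhibition of growth.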
Tests used:
Assay in all cases: inhibition of tumour cell growth, NCI panel, 48 h
[1] = tested on: 786-0 renal
[2] = tested on: UO-31 renal
[3] = tested on: LOX IMVI melanoma
[4] = tested on: A498 renal
[5] = tested on: EKVX NSCLC
[6] = tested on: SF-539 CNS
[7] = tested on: HT29 colon
[8] = tested on: SF-295 CNS
[9] = tested on: K-562 leukemia
[10] = tested on: MALME-3M melanoma

Row | SMILES | GI50 [1] [µM] | TGI [1] [µM] | GI50 [2] [µM] | TGI [2] [µM] | GI50 [3] [µM] | TGI [3] [µM] | GI50 [4] [µM] | TGI [4] [µM] | GI50 [5] [µM] | TGI [5] [µM] | GI50 [6] [µM] | TGI [6] [µM] | GI50 [7] [µM] | TGI [7] [µM] | GI50 [8] [µM] | TGI [8] [µM] | GI50 [9] [µM] | TGI [9] [µM] | GI50 [10] [µM] | TGI [10] [µM]
1 | Cc1cc2c(C(N)=O)cccc2n1-c1nc2c(c(NCc3ccccc3)n1)CCCN2 | 0.248 | 0.519 | 0.215 | 0.474 | 0.0517 | 0.206 | 0.212 | 0.362 | 0.256 | 0.63 | 0.205 | 0.423 | 0.215 | 0.485 | 0.174 | 0.352 | 0.0955 | 2.92 | 0.178 | 0.346
2 | Cc1cc2c(c(C#N)c1C)NC(=O)C(CC(=O)O)C2=O (stereo not given) | – | > 100 | – | > 100 | – | > 100 | – | > 100 | – | > 100 | – | > 100 | – | > 100 | – | > 100 | – | > 100 | – | > 100
3 | N#CSCC1CC(O)(c2ccccc2)C(c2ccccc2)C(c2ccc(F)cc2)O1 (stereo not given) | 3.05 | 9.08 | 2.62 | 11.9 | 1.64 | 3.18 | 18.1 | 45.9 | 2.46 | 7.58 | 3.15 | 7.69 | 2.61 | 11.6 | 1.88 | 7.08 | 1.5 | 5.97 | 2.08 | 5.02
4 | O=C(Nc1ccc2oc(=O)c(C(=O)O)cc2c1)Oc1ccccc1 | – | > 100 | – | > 100 | – | > 100 | – | > 100 | – | > 100 | – | > 100 | – | > 100 | – | > 100 | – | > 100 | – | > 100
5 | COc1cc2c(cc1OC)[C@@H](C(O)c1ccccc1)NCC2 (stereo not given in full) | – | > 100 | – | > 100 | – | > 100 | – | > 100 | – | > 100 | – | > 100 | – | > 100 | – | > 100 | – | > 100 | – | > 100
6 | COC1=C(C(=O)OC(C)(C)C)[C@]2(C)C(C(=O)OC(C)(C)C)C(OC)=C(C(=O)OC(C)(C)C)[C@]2(C)C1C(=O)OC(C)(C)C (stereo not given in full) | – | > 100 | – | > 100 | – | > 100 | – | > 100 | – | > 100 | – | > 100 | – | > 100 | – | > 100 | – | > 100 | – | > 100
7 | C=C1C(=O)O[C@@H]2C[C@@H](C)[C@@H]3[C@@H](OC4OC(COC(C)=O)C(O)C(O)C4O)CC(=O)[C@@]3(C)C[C@H]12 (stereo not given in full) | – | 0.883 | – | 3.38 | – | 1.78 | – | 30.1 | – | 7.6 | – | 6.27 | – | 2.93 | – | 31.3 | – | 3.78 | – | 0.849
8 | Cn1c(=O)c2[nH]c(COCc3nc4c([nH]3)c(=O)n(C)c(=O)n4C)nc2n(C)c1=O | – | > 100 | – | > 100 | – | > 100 | – | > 100 | – | > 100 | – | > 100 | – | > 100 | – | > 100 | – | > 100 | – | > 100
9 | COc1ccc(C=NC23CC4CC(CC(C4)C2)C3)cc1 | – | > 100 | – | > 100 | – | > 100 | – | > 100 | – | > 100 | – | > 100 | – | > 100 | – | > 100 | – | > 100 | – | > 100
10 | Cn1c2ccccc2c2nnc(N/N=C/c3ccccn3)nc21 | 0.256 | 0.758 | 0.361 | 5.3 | 0.331 | 3.33 | 0.396 | 5.05 | 0.293 | > 32 | 0.284 | 0.854 | 0.529 | > 100 | 0.37 | > 23.9 | 1.75 | > 39.6 | 0.334 | 2.26
11 | O=C(Nc1nccs1)c1cc(C2=CC=CC([N+](=O)[O-])C=C2)nc(=S)[nH]1 (stereo not given) | – | > 100 | – | > 100 | – | > 100 | – | > 100 | – | > 100 | – | > 100 | – | > 100 | – | > 100 | – | > 100 | – | > 100
12 | CC1(C)N=C(N)N=C(N)N1c1cccc(CCCCc2ccc(S(=O)(=O)F)cc2Cl)c1 | 3.28 | 24.5 | 14.6 | > 100 | 1.34 | > 41.7 | > 48.2 | > 100 | 2.02 | > 67.5 | 2.06 | 20.1 | 0.788 | > 100 | 2.44 | > 38.8 | 3.42 | > 100 | 1.12 | 28.2
13 | O=C1C(Cl)=C(N2CCOCC2)C(=O)c2ccccc21 | 16.6 | 31.2 | 1.64 | 3.28 | 3.01 | 13.6 | 11.2 | 24.3 | 3.75 | 14.3 | 20.1 | 34.6 | 5.94 | 21.8 | 19.2 | 36.7 | 2.15 | 7.8 | 2.55 | 4.85
14 | C=CCN=C1N=C(CC(=O)OCC)CS1 | – | > 100 | – | > 100 | – | > 100 | – | > 100 | – | > 100 | – | > 100 | – | > 100 | – | > 100 | – | > 100 | – | > 100
15 | Cc1nc(Nc2ccc(F)c(Cl)c2)sc1C(=O)O | 1.74 | 3.98 | 1.16 | 2.82 | 1.51 | 2.91 | 1.64 | 4.16 | 0.865 | 5.76 | 1.58 | 3.07 | 1.67 | 3.44 | 1.49 | 3.15 | 2.65 | > 100 | 1.65 | 3.71
16 | NC1CCC[C@@H](O)[C@H]1O (stereo not given in full) | – | > 100 | – | > 100 | – | > 100 | – | > 100 | – | > 100 | – | > 100 | – | > 100 | – | > 100 | – | > 100 | – | > 100

From PubChem BioAssay (NCI)
